Results on 17 molecules are retold here after publication PMC9502897, “Design, Synthesis and Structure—Activity Relationships of Phenylalanine-Containing Peptidomimetics as Novel HIV-1 Capsid Binders Based on Ugi Four-Component Reaction” (Molecules, 2022).

Some results are limits rather than exact numbers.

Data set [1] deals with HIV-1. The experiment in a line: Anti-HIV-1 activity in MT-4 cells (MTT method). The data set is classed as cell-based. The following applies: for EC50: MT-4 cells, 50% protection against HIV-induced cytopathicity, MTT method; for anti-HIV activity: R2 1-methylnaphthalene replaced by 2-methylnaphthalene, HIV-1/HIV-2, MT-4 cells. As for the experimental part: (§1) The evaluation of the antiviral activity of the compounds against HIV in MT-4 cells was performed using the MTT assay as described below. Stock solutions (10 × final concentration) of test compounds were added in 25 μL volumes to two series of triplicate wells to allow simultaneous evaluation of their effects on mock- and HIV-infected cells at the beginning of each experiment. Serial 5-fold dilutions of test compounds were made directly in flat-bottomed 96-well microtiter trays using a Biomek 3000 robot (Beckman Instruments, Fullerton, CA). Untreated HIV- and mock-infected cell samples were included as controls. HIV stock ([…]) at 100–300 CCID50 (50% cell culture infectious doses) or culture medium was added to either the infected or mock-infected wells of the microtiter tray. Mock-infected cells were used to evaluate the effects of the test compound on uninfected cells to assess the test compounds’ cytotoxicity. Exponentially growing MT-4 cells were centrifuged for 5 min at 220 g, and the supernatant was discarded. The MT-4 cells were resuspended at 6 × 10^5 cells/mL, and 50 μL volumes were transferred to the microtiter tray wells. Five days after infection, the viability of mock- and HIV-infected cells was examined spectrophotometrically using the MTT assay. The MTT assay is based on the reduction of yellow-colored 3-(4,5-dimethylthiazol-2-yl)-2,5-diphenyltetrazolium bromide (MTT) (Acros Organics) by mitochondrial dehydrogenase activity in metabolically active cells to a blue-purple formazan that can be measured spectrophotometrically. The absorbances were read in an eight-channel computer-controlled photometer (Infinite M1000, Tecan) at two wavelengths (540 and 690 nm). All data were calculated using the median absorbance value of three wells.
A general note: Tetrazolium assays rely on reduction of a dye to a coloured formazan, in cell work by metabolically active cells.

For data set [2], the system named is HIV-2. The experiment in a line: Anti-HIV-2 activity in MT-4 cells (MTT method). Format: cell-based. As for the experimental part: as §1
For data set [3], the system named is MT-4 cells. The experiment in a line: in vitro. As to the method: as §1
Data set [4] in a line: Cytotoxicity in mock-infected MT-4 cells (MTT method). The following applies: human, mock-infected (uninfected) MT-4 cells, CC50, uninfected MT-4 cells, viability reduced by 50%, MTT method. As to the method:
as §1

[5] abbreviates: Human immunodeficiency virus 1, MT4.
[6] abbreviates: Human immunodeficiency virus 2, MT4, 50% protection against HIV-induced cytopathicity.
Setting [7] is: 50% protection against HIV-induced cytopathicity.

With `COc1ccc(N(C)C(=O)[C@H](Cc2cc(F)cc(F)c2)NC(=O)CN(Cc2ccc(F)cc2)C(=O)Cc2ccc3ccccc3c2)cc1` [I-6, (S)-3-(3,5-difluorophenyl)-2-(2-(N-(4-fluorobenzyl)-2-(naphthalen-2-yl)acetamido)acetamido)-N-(4-methoxyphenyl)-N-methylpropanamide], the EC50 in data set [1] (setting [5]) and in data set [2] (setting [6]) was greater than 160 µM each time. In addition, the anti-HIV activity result in data set [1] is reported as “lost”. Moreover, the CC50 – broadly, the concentration giving 50% cytotoxicity – in data set [3] (human, 5 days) is greater than 160 µM.
Consider `COc1ccc(N(C)C(=O)[C@H](Cc2cc(F)cc(F)c2)NC(=O)CN(Cc2ccc(F)cc2)C(=O)Cc2c(C)[nH]c3ccccc23)cc1` [I-7, (S)-3-(3,5-difluorophenyl)-2-(2-(N-(4-fluorobenzyl)-2-(2-methyl-1H-indol-3-yl)acetamido)acetamido)-N-(4-methoxyphenyl)-N-methylpropanamide], for which the EC50 (as a rule, the concentration at which the effect is half-maximal) in data set [1] (setting [5]) is 2.79 ± 0.19 µM; in data set [2] (setting [6]) it was greater than 22.6 µM. The same molecule yielded a CC50 in data set [3] (human, 5 days) of 22.6 ± 0.96 µM.
In the case of `COc1ccc(N(C)C(=O)[C@H](Cc2cc(F)cc(F)c2)NC(=O)CN(Cc2ccc(F)cc2)C(=O)Cc2cccc3ccccc23)cc1` [I-8, (S)-3-(3,5-difluorophenyl)-2-(2-(N-(4-fluorobenzyl)-2-(naphthalen-1-yl)acetamido)acetamido)-N-(4-methoxyphenyl)-N-methylpropanamide], the results for the EC50 in data set [1] (setting [5]) and in data set [2] (setting [6]) were greater than 191 µM and 5.87 ± 1.79 µM, respectively. The same molecule yielded a CC50 in data set [3] (human, 5 days) greater than 191 µM.
`COc1ccc(N(C)C(=O)[C@H](Cc2cc(F)cc(F)c2)NC(=O)CN(Cc2ccc(F)cc2)C(=O)Cc2c[nH]c3ccc(Br)cc23)cc1` [I-9, (S)-2-(2-(2-(5-bromo-1H-indol-3-yl)-N-(4-fluorobenzyl)acetamido)acetamido)-3-(3,5-difluorophenyl)-N-(4-methoxyphenyl)-N-methylpropanamide]: the EC50 in data set [1] (setting [5]) is 2.93 ± 0.32 µM; in data set [2] (setting [6]), greater than 17.8 µM. The same molecule yielded a CC50 in data set [3] (human, 5 days) of 17.8 ± 1.04 µM.
Taken in the same sequence, the figures for `COc1ccc(N(C)C(=O)[C@H](Cc2cc(F)cc(F)c2)NC(=O)CN(CC2CCCCC2)C(=O)Cc2c[nH]c3ccc(Br)cc23)cc1` [I-10, (S)-2-(2-(2-(5-bromo-1H-indol-3-yl)-N-(cyclohexylmethyl)acetamido)acetamido)-3-(3,5-difluorophenyl)-N-(4-methoxyphenyl)-N-methylpropanamide] were greater than 17.6 µM, greater than 17.6 µM and 17.6 ± 2.41 µM.
Take `COc1ccc(N(C)C(=O)[C@H](Cc2cc(F)cc(F)c2)NC(=O)CN(Cc2ccc(F)cc2)C(=O)Cc2ccc(B3OC(C)(C)C(C)(C)O3)cc2)cc1` [I-12, (S)-3-(3,5-difluorophenyl)-2-(2-(N-(4-fluorobenzyl)-2-(4-(4,4,5,5-tetramethyl-1,3,2-dioxaborolan-2-yl)phenyl)acetamido)acetamido)-N-(4-methoxyphenyl)-N-methylpropanamide]: the EC50 in data set [1] (setting [5]) turned out to be 11.7 ± 2.07 µM; in data set [2] (setting [6]), 13.2 ± 2.6 µM. For the same molecule, the CC50 in data set [3] (human, 5 days) came out at 65.4 ± 16.8 µM.
Turning to `COc1ccc(N(C)C(=O)[C@H](Cc2cc(F)cc(F)c2)NC(=O)CN(Cc2ccc(C#N)cc2)C(=O)Cc2ccc3ccccc3c2)cc1` [I-13, (S)-2-(2-(N-(4-cyanobenzyl)-2-(naphthalen-2-yl)acetamido)acetamido)-3-(3,5-difluorophenyl)-N-(4-methoxyphenyl)-N-methylpropanamide], the EC50 in data set [1] (setting [5]) is greater than 189 µM; in data set [2] (setting [6]), 161 ± 26 µM. The anti-HIV activity result in data set [1] was “lost”. In data set [3] (human, 5 days), this molecule displayed a CC50 greater than 189 µM.
In the case of `COc1ccc(N(C)C(=O)[C@H](Cc2cc(F)cc(F)c2)NC(=O)CN(Cc2ccc(C#N)cc2)C(=O)Cc2cccc3ccccc23)cc1` [I-14, (S)-2-(2-(N-(4-cyanobenzyl)-2-(naphthalen-1-yl)acetamido)acetamido)-3-(3,5-difluorophenyl)-N-(4-methoxyphenyl)-N-methylpropanamide], the half-maximal effective concentration (EC50) in data set [1] (setting [5]) was greater than 189 µM; in data set [2] (setting [6]), 2.3 ± 0.11 µM. The same molecule yielded a CC50 in data set [3] (human, 5 days) greater than 189 µM.
In the case of `COc1ccc(N(C)C(=O)[C@H](Cc2cc(F)cc(F)c2)NC(=O)CN(Cc2ccc(C#N)cc2)C(=O)Cc2ccc(B3OC(C)(C)C(C)(C)O3)cc2)cc1` [I-17, (S)-2-(2-(N-(4-cyanobenzyl)-2-(4-(4,4,5,5-tetramethyl-1,3,2-dioxaborolan-2-yl)phenyl)acetamido)acetamido)-3-(3,5-difluorophenyl)-N-(4-methoxyphenyl)-N-methylpropanamide], the EC50 came to 17.7 ± 4.6 µM in data set [1] (setting [5]) and 16.2 ± 4.59 µM in data set [2] (setting [6]). In data set [3] (human, 5 days), this molecule displayed a CC50 of 52.4 ± 14.2 µM.
Take `COc1ccc(N(C)C(=O)[C@H](Cc2cc(F)cc(F)c2)NC(=O)CN(C(=O)Cc2ccc(B3OC(C)(C)C(C)(C)O3)cc2)C2CC2)cc1` [I-18, (S)-2-(2-(N-cyclopropyl-2-(4-(4,4,5,5-tetramethyl-1,3,2-dioxaborolan-2-yl)phenyl)acetamido)acetamido)-3-(3,5-difluorophenyl)-N-(4-methoxyphenyl)-N-methylpropanamide]: the results for the EC50 in data set [1] (setting [5]) and in data set [2] (setting [6]) were 5.18 ± 1.11 µM and 9.71 ± 0.8 µM, respectively. In addition, in data set [3] (human, 5 days), the CC50 was 89 ± 17.1 µM.
As for `COc1ccc(N(C)C(=O)[C@H](Cc2cc(F)cc(F)c2)NC(=O)CN(CC2CCCCC2)C(=O)Cn2nc(C(F)(F)F)cc2C)cc1` [I-20, (S)-2-(2-(N-(cyclohexylmethyl)-2-(5-methyl-3-(trifluoromethyl)-1H-pyrazol-1-yl)acetamido)acetamido)-3-(3,5-difluorophenyl)-N-(4-methoxyphenyl)-N-methylpropanamide], the results for the EC50 in data set [1] (setting [5]) and in data set [2] (setting [6]) were 30.3 ± 3.24 µM and 24.9 ± 12 µM, respectively. Further, the midpoint of cytotoxicity in data set [3] (human, 5 days), the CC50, lay at 45.7 ± 5.36 µM.
On to `COc1ccc(N(C)C(=O)[C@H](Cc2cc(F)cc(F)c2)NC(=O)CN(Cc2ccccc2)C(=O)Cc2c(C)[nH]c3ccccc23)cc1` [I-21, (S)-2-(2-(N-benzyl-2-(2-methyl-1H-indol-3-yl)acetamido)acetamido)-3-(3,5-difluorophenyl)-N-(4-methoxyphenyl)-N-methylpropanamide], for which the EC50 in data set [1] (setting [5]) was 2.77 ± 0.77 µM; in data set [2] (setting [6]), 6.52 ± 0.6 µM. For the same molecule, the CC50 in data set [3] (human, 5 days) was found to be 28.6 ± 0.86 µM.
Turning to `COc1ccc(N(C)C(=O)[C@H](Cc2cc(F)cc(F)c2)NC(=O)CN(Cc2ccccc2)C(=O)Cc2ccc3ccccc3c2)cc1` [I-22, (S)-2-(2-(N-benzyl-2-(naphthalen-2-yl)acetamido)acetamido)-3-(3,5-difluorophenyl)-N-(4-methoxyphenyl)-N-methylpropanamide], the EC50 in data set [1] (setting [5]) was greater than 176 µM; in data set [2] (setting [6]), greater than 18.9 µM. The same molecule gave a CC50 in data set [3] (human, 5 days) of 176 ± 7.35 µM.
Taken in the same sequence, the figures for `COc1ccc(N(C)C(=O)[C@H](Cc2cc(F)cc(F)c2)NC(=O)CN(Cc2ccc(F)cc2)C(=O)Cc2ccc(B(O)O)cc2)cc1` [I-23, (S)-(4-(2-((2-((3-(3,5-difluorophenyl)-1-((4-methoxyphenyl)(methyl)amino)-1-oxopropan-2-yl)amino)-2-oxoethyl)(4-fluorobenzyl)amino)-2-oxoethyl)phenyl) boronic acid] were 4.33 ± 1.32 µM, 6.8 ± 0.36 µM and 18.9 ± 3.59 µM.
In the case of `Cc1ccnc2c1NC(=O)c1cccnc1N2C1CC1` [NVP, nevirapine, reference compound], the EC50 in data set [2] (setting [6]) is greater than 15 µM. The CC50 at 5 days in data set [4] was greater than 15.2 µM. Further, the CC50 in data set [3] (uninfected MT-4 cells, viability reduced by 50%, MTT method) is greater than 15 µM.
For “(S)-2-(2-(2-(5-bromo-2-methyl-1H-indol-3-yl)-N-(4-cyanobenzyl)acetamido)acetamido)-3-(3,5-difluorophenyl)-N-(4-methoxyphenyl)-N-methylpropanamide [I-16]”, the EC50 was 5.61 ± 1.18 µM in data set [1] and 15.7 ± 13.3 µM in data set [2] (setting [7]). In data set [3], this molecule had a CC50 of 87.6 ± 62.2 µM.
Consider “(S)-2-(2-(N-(4-cyanobenzyl)-2-(5-fluoro-2-methyl-1H-indol-3-yl)acetamido)acetamido)-3-(3,5-difluorophenyl)-N-(4-methoxyphenyl)-N-methylpropanamide [I-15]”, for which the values for the EC50 in data set [1] and in data set [2] (setting [7]) were 17.2 ± 9.98 µM and 5.81 ± 1.11 µM, respectively. Moreover, in data set [3], the midpoint of cytotoxicity, the CC50, lay at 148 ± 16.6 µM.
